In patent US10413593B2 (priority 2014, dated 2019):
*1 amine or outer side, *2 acyl side, *3 side chain or, on linkers, in order; H or OH if unused. Where a SMILES comes first, the peptide text is derived from it. Where no end group is shown, it is not given here. Side-chain parts run from the residue outwards. [ ]: non-standard residue; d: D form. The star is where a group is joined. C16 = palmitoyl, CCCCCCCCCCCCCCCC(=O)*; γGlu = O=C(O)[C@H](CCC(=O)[*:2])N[*:1]; X1 = O=C(C(N[*:1])C(O)c1ccccc1)[*:2]; Palmitoyl = CCCCCCCCCCCCCCCC(=O)*

Key:
[1] = target: T1, human GCGR (Homo sapiens, UniProt P47871); test: cAMP assay in cells expressing human GCGR (HitHunter cAMP XS); format: cell-based; details: for hGCGR/hGLP1R (hTone): ratio of EC50 at human GCGR to EC50 at human GLP1R; for EC50: cAMP production, cells expressing human GCGR, assay buffer with 20% human serum, 1 hour
T1 construct: expressed in transfected cells
T1 sequence (P47871 26-477): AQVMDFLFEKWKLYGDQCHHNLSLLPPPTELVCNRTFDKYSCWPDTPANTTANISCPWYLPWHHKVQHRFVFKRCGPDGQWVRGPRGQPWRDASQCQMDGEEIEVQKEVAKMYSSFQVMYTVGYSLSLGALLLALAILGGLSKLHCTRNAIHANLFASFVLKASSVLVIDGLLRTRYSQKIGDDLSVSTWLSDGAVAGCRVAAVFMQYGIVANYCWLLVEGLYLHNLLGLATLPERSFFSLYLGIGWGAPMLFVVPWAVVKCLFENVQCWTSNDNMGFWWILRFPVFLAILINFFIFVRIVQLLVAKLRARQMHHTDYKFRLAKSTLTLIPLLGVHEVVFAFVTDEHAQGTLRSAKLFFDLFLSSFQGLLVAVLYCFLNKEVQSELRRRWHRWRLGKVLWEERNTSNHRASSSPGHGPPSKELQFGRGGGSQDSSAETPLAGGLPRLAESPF
Description: The cAMP protocol was as follows.
(§1) Peptides were dissolved in 100% DMSO and serially diluted to generate 11 point titrations. The peptide solutions were then transferred into 384-well assay plates (150 nL/well). Assay ready frozen cells expressing human GLP-1R or human GCGR were suspended in growth media consisting of DMEM/F12 medium (GIBCO), 10% FBS (GIBCO), lx P/S (GIBCO), 800 μg/mL Geneticin (GIBCO), and 300 μg/mL Hygromycin (Invitrogen). Cells were then diluted in assay buffer consisting of PBS (GIBCO), 7.5% BSA (Perkin Elmer), 100 μM RO 20-1724 (Sigma), and 20% human serum (MP Biomedical). The cell suspensions (15 μL) were then added to the assay plates containing the peptide solutions (30,000 cells/well for human GCGR; 20,000 cells/well for GLP1R). The cells were incubated for 1 hour at room temperature in the dark. Production of cAMP was determined using HitHunter™ cAMPXS kits (DiscoverX). ED buffer (20 μL) was then added to each well and the plates were incubated for 1 hour at room temperature in the dark. Subsequently, EA buffer (20 μL) was added to each well, and the plates were incubated for 1-18 hours at room temperature in the dark. Luminescence was measured using an EnVision Multilabel plate reader (Perkin Elmer). EC50 values were calculated using ADA data analyzer software.

[2] = Cumulative body weight change in DIO mice, daily s.c. dosing for nine days (Example 18, FIG. 1); format: in vivo, mice (strain C57Bl6/NTac); details: 9 nmol/kg s.c. daily, day 9
Description: Mice were administered a vehicle control or a dose of a peptide daily for nine days. […] The peptide of SEQ ID NO: 9 was administered at doses of 9 and 25 nmol/kg. Cumulative body weight change (grams) was measured each day of the study except on day 3. Results are shown in FIG. 1 and are expressed as mean±SEM.

[3] = Second study in DIO mice: body weight change percent relative to vehicle (Example 19, FIG. 2); format: in vivo, mice (strain C57Bl6/NTac); details: eight days
Description: In addition, the peptide of SEQ ID NO: 8 was administered at 15 nmol/kg, while the peptide of SEQ ID NOs: 10 and 11 were administered at 3 nmol/kg. Body weight was measured daily for eight days and body weight change is expressed as percent relative to vehicle (FIG. 2).

[4] = Ambient glucose in DIO mice (Example 21, FIG. 4); format: in vivo, mice (strain C57Bl6/NTac); details: for change in ambient glucose compared to vehicle: day 9 of dosing
Description: In addition to cumulative body weight change, ambient glucose levels of the DIO mice (strain C57Bl6/NTac) were measured periodically throughout the study.

[5] = target: T2, human GLP-1R (Homo sapiens, UniProt P43220); test: cAMP assay in cells expressing human GLP-1R (HitHunter cAMP XS); format: cell-based; details: cAMP production, assay buffer with 20% human serum, 1 hour, read-out: GLPR1 EC50 (nM) human
T2 construct: expressed in transfected cells
T2 sequence (P43220 24-463): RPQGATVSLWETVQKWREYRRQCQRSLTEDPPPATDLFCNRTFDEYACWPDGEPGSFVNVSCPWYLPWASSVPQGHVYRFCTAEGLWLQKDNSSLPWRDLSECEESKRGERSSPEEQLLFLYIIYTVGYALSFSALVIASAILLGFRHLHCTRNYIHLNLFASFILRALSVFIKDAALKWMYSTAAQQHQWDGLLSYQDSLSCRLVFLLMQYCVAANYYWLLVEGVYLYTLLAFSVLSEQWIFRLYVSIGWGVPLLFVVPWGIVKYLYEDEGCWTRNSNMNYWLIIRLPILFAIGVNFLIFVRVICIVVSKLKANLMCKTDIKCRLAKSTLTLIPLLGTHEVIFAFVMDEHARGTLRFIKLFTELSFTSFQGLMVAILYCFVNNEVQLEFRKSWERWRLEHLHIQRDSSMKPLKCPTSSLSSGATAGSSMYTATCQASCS
Description: The cAMP protocol was as follows.
as §1

Molecule | hGCGR/hGLP1R (hTone) [1] | body weight loss [2] | weight loss, percent relative to vehicle ([3]; 9 nmol/kg daily) | change in ambient glucose compared to vehicle ([4]; 9 nmol/kg) | further results
CCCCCCCCCCCCCCCC(=O)N[C@@H](CCC(=O)N[C@@H](CCC(=O)NCCCC[C@H](NC(=O)[C@H](CC(=O)O)NC(=O)[C@H](CO)NC(=O)[C@@H](NC(=O)[C@H](Cc1ccccc1)NC(=O)[C@@H](NC(=O)CNC(=O)[C@H](CCC(N)=O)NC(=O)[C@H](C)NC(=O)[C@H](Cc1c[nH]cn1)NC(C)=O)[C@@H](C)O)[C@@H](C)O)C(=O)N[C@@H](CO)C(=O)N[C@@H](CCCCN)C(=O)N[C@@H](Cc1ccc(O)cc1)C(=O)N[C@@H](CC(C)C)C(=O)N[C@@H](CC(=O)O)C(=O)N[C@@H](CCC(=O)O)C(=O)N[C@@H](CCCNC(=N)N)C(=O)N[C@@H](C)C(=O)N[C@@H](C)C(=O)N[C@@H](CCC(N)=O)C(=O)N[C@@H](CC(=O)O)C(=O)N[C@@H](Cc1ccccc1)C(=O)N[C@H](C(=O)N[C@@H](CCC(N)=O)C(=O)N[C@@H](Cc1c[nH]c2ccccc12)C(=O)N[C@@H](CC(C)C)C(=O)N[C@@H](CC(C)C)C(=O)N[C@@H](CC(=O)O)C(=O)N[C@H](C(N)=O)[C@@H](C)O)C(C)C)C(=O)O)C(=O)O [compound 12] | 1.00 | – | – | – | –
CCCCCCCCCCCCCCCC(=O)N[C@@H](CCC(=O)N[C@@H](CCC(=O)NCCCC[C@H](NC(=O)[C@H](CC(=O)O)NC(=O)[C@H](CO)NC(=O)[C@@H](NC(=O)[C@H](Cc1ccccc1)NC(=O)[C@@H](NC(=O)CNC(=O)[C@@H](NC(=O)C(C)(C)NC(=O)[C@@H](N)Cc1c[nH]cn1)C(C)C)[C@@H](C)O)[C@@H](C)O)C(=O)N[C@@H](CO)C(=O)N[C@@H](CCCCN)C(=O)N[C@@H](Cc1ccc(O)cc1)C(=O)N[C@@H](CC(C)C)C(=O)N[C@@H](CC(=O)O)C(=O)NC(C)(C)C(=O)N[C@@H](CCCNC(=N)N)C(=O)N[C@@H](C)C(=O)N[C@@H](C)C(=O)N[C@@H](CCC(N)=O)C(=O)N[C@@H](CC(=O)O)C(=O)N[C@@H](Cc1ccccc1)C(=O)N[C@H](C(=O)N[C@@H](CCC(N)=O)C(=O)N[C@@H](Cc1c[nH]c2ccccc12)C(=O)N[C@@H](CC(C)C)C(=O)N[C@@H](CCCC)C(=O)N[C@@H](CC(=O)O)C(=O)N[C@H](C(N)=O)[C@@H](C)O)C(C)C)C(=O)O)C(=O)O [SEQ ID NO: 9] | – | ~3 grams | approximately 5% | did not exhibit significant changes in ambient glucose | decrease in ambient glucose compared to vehicle ([4]; 25 nmol/kg, second day of dosing): -75 mg/dL
CCCCCCCCCCCCCCCC(=O)N[C@@H](CCC(=O)NCCCC[C@H](NC(=O)[C@H](CC(=O)O)NC(=O)[C@H](CO)NC(=O)[C@@H](NC(=O)[C@H](Cc1ccccc1)NC(=O)[C@@H](NC(=O)CNC(=O)[C@H](CCC(N)=O)NC(=O)[C@@H](CO)NC(=O)[C@@H](N)Cc1c[nH]cn1)[C@@H](C)O)[C@@H](C)O)C(=O)N[C@@H](CO)C(=O)N[C@@H](CCCCN)C(=O)N[C@@H](Cc1ccc(O)cc1)C(=O)N[C@@H](CC(C)C)C(=O)N[C@@H](CC(=O)O)C(=O)N[C@@H](C)C(=O)N[C@@H](CCCNC(=N)N)C(=O)N[C@@H](C)C(=O)N[C@@H](C)C(=O)N[C@@H](CCC(N)=O)C(=O)N[C@@H](CC(=O)O)C(=O)N[C@@H](Cc1ccccc1)C(=O)N[C@H](C(=O)N[C@@H](CCC(N)=O)C(=O)N[C@@H](Cc1c[nH]c2ccccc12)C(=O)N[C@@H](CC(C)C)C(=O)N[C@@H](CC(C)C)C(=O)N[C@@H](CC(=O)O)C(=O)N[C@H](C(N)=O)[C@@H](C)O)C(C)C)C(=O)O [SEQ ID NO: 6] | – | 10.5 grams | approximately 20% | – | decrease in ambient glucose compared to vehicle ([4]; 9 nmol/kg, day 7 of dosing): -60 mg/dL
CCCCCCCCCCCCCCCC(=O)N[C@@H](CCC(=O)N[C@@H](CCC(=O)NCCCC[C@H](NC(=O)[C@H](CC(=O)O)NC(=O)[C@H](CO)NC(=O)[C@@H](NC(=O)C(NC(=O)[C@@H](NC(=O)CNC(=O)[C@H](CCC(N)=O)NC(=O)[C@@H](CO)NC(=O)[C@@H](N)Cc1c[nH]cn1)[C@@H](C)O)C(O)c1ccccc1)[C@@H](C)O)C(=O)N[C@@H](CO)C(=O)N[C@@H](CCCCN)C(=O)N[C@@H](Cc1ccc(O)cc1)C(=O)N[C@@H](CC(C)C)C(=O)N[C@@H](CC(=O)O)C(=O)N[C@@H](CCC(=O)O)C(=O)N[C@@H](CCCNC(=N)N)C(=O)N[C@@H](C)C(=O)N[C@@H](C)C(=O)N[C@@H](CCC(N)=O)C(=O)N[C@@H](CC(=O)O)C(=O)N[C@@H](Cc1ccccc1)C(=O)N[C@H](C(=O)N[C@@H](CCC(N)=O)C(=O)N[C@@H](Cc1c[nH]c2ccccc12)C(=O)N[C@@H](CC(C)C)C(=O)N[C@@H](CC(C)C)C(=O)N[C@@H](CC(=O)O)C(=O)N[C@H](C(N)=O)[C@@H](C)O)C(C)C)C(=O)O)C(=O)O (stereo partly drawn) [compound 19] (H-H[dS]QGT[X1]TSDK([γGlu-γGlu-Palmitoyl])SKYLDERAAQDFVQWLLDT-NH2; N-terminus assumed) | 1.02 | – | – | – | EC50 [5]: 1.02 nM; EC50 [1]: 1.04 nM
CCCCCCCCCCCCCCCC(=O)N[C@@H](CCC(=O)N[C@@H](CCC(=O)NCCCC[C@H](NC(=O)[C@H](CC(=O)O)NC(=O)[C@H](CO)NC(=O)[C@@H](NC(=O)[C@H](Cc1ccc(F)cc1)NC(=O)[C@@H](NC(=O)CNC(=O)[C@H](CCC(N)=O)NC(=O)[C@@H](CO)NC(=O)[C@@H](N)Cc1c[nH]cn1)[C@@H](C)O)[C@@H](C)O)C(=O)N[C@@H](CO)C(=O)N[C@@H](CCCCN)C(=O)N[C@@H](Cc1ccc(O)cc1)C(=O)N[C@@H](CC(C)C)C(=O)N[C@@H](CC(=O)O)C(=O)N[C@@H](CCC(=O)O)C(=O)N[C@@H](CCCNC(=N)N)C(=O)N[C@@H](C)C(=O)N[C@@H](C)C(=O)N[C@@H](CCC(N)=O)C(=O)N[C@@H](CC(=O)O)C(=O)N[C@@H](Cc1ccccc1)C(=O)N[C@H](C(=O)N[C@@H](CCC(N)=O)C(=O)N[C@@H](Cc1c[nH]c2ccccc12)C(=O)N[C@@H](CC(C)C)C(=O)N[C@@H](CC(C)C)C(=O)N[C@@H](CC(=O)O)C(=O)N[C@H](C(N)=O)[C@@H](C)O)C(C)C)C(=O)O)C(=O)O [compound 14] | 0.93 | – | – | – | EC50 [5]: 0.06 nM; EC50 [1]: 0.05 nM
HsQGTFTSDK(γEγEC16)SKYLDVRRAQDFVQWLLDT-NH2 (H[dS]QGTFTSDK([γGlu-γGlu-C16])SKYLDVRRAQDFVQWLLDT-NH2; N-terminus assumed; SMILES CCCCCCCCCCCCCCCC(=O)N[C@@H](CCC(=O)N[C@@H](CCC(=O)NCCCC[C@H](NC(=O)[C@H](CC(=O)O)NC(=O)[C@H](CO)NC(=O)[C@@H](NC(=O)[C@H](Cc1ccccc1)NC(=O)[C@@H](NC(=O)CNC(=O)[C@H](CCC(N)=O)NC(=O)[C@@H](CO)NC(=O)[C@@H](N)Cc1c[nH]cn1)[C@@H](C)O)[C@@H](C)O)C(=O)N[C@@H](CO)C(=O)N[C@@H](CCCCN)C(=O)N[C@@H](Cc1ccc(O)cc1)C(=O)N[C@@H](CC(C)C)C(=O)N[C@@H](CC(=O)O)C(=O)N[C@H](C(=O)N[C@@H](CCCNC(=N)N)C(=O)N[C@@H](CCCNC(=N)N)C(=O)N[C@@H](C)C(=O)N[C@@H](CCC(N)=O)C(=O)N[C@@H](CC(=O)O)C(=O)N[C@@H](Cc1ccccc1)C(=O)N[C@H](C(=O)N[C@@H](CCC(N)=O)C(=O)N[C@@H](Cc1c[nH]c2ccccc12)C(=O)N[C@@H](CC(C)C)C(=O)N[C@@H](CC(C)C)C(=O)N[C@@H](CC(=O)O)C(=O)N[C@H](C(N)=O)[C@@H](C)O)C(C)C)C(C)C)C(=O)O)C(=O)O) [SEQ ID NO: 7] | – | ~3 grams | approximately 5% | did not exhibit significant changes in ambient glucose | –
CCCCCCCCCCCCCCCC(=O)N[C@@H](CCC(=O)N[C@@H](CCC(=O)NCCCC[C@H](NC(=O)[C@H](CC(=O)O)NC(=O)[C@H](CO)NC(=O)[C@@H](NC(=O)[C@H](Cc1ccccc1)NC(=O)[C@@H](NC(=O)CNC(=O)[C@H](CCC(N)=O)NC(=O)[C@@H](CO)NC(=O)[C@@H](N)Cc1c[nH]cn1)[C@@H](C)O)[C@@H](C)O)C(=O)N[C@@H](CO)C(=O)N[C@@H](CCCCN)C(=O)N[C@@H](Cc1ccc(O)cc1)C(=O)N[C@@H](CC(C)C)C(=O)N[C@@H](CC(=O)O)C(=O)N[C@H](C(=O)N[C@@H](CCCNC(=N)N)C(=O)N[C@@H](C)C(=O)N[C@@H](C)C(=O)N[C@@H](CCC(N)=O)C(=O)N[C@@H](CC(=O)O)C(=O)N[C@@H](Cc1ccccc1)C(=O)N[C@H](C(=O)N[C@@H](CCC(N)=O)C(=O)N[C@@H](Cc1c[nH]c2ccccc12)C(=O)N[C@@H](CC(C)C)C(=O)N[C@@H](CC(C)C)C(=O)N[C@@H](CC(=O)O)C(=O)N[C@H](C(N)=O)[C@@H](C)O)C(C)C)C(C)C)C(=O)O)C(=O)O [SEQ ID NO: 8] | – | 8 grams | approximately 17% | -72 mg/dL | weight loss, percent relative to vehicle ([3]; 15 nmol/kg daily): approximately 25%
